This note sets out measurements from US20050131045A1, “Novel crystal forms of ondansetron, processes for their preparation, pharmaceutical, compositions containing the novel forms and methods for treating nausea using them” (priority 2002, published 2005).

Each structure is given as a SMILES string.

The series in a line: Solubility in C1-C3 alcohols. In kind it is physicochemical. The following applies: methanol, ethanol, propan-1-ol, propan-2-ol; room temperature. As for the experimental part:
Ondansetron Form B may be prepared by crystallizing ondansetron from a solution in a C1-C3 alcohol, in particular, methanol, ethanol, propan-1-ol, propan-2-ol and mixtures thereof. Ondansetron is dissolved in the C1-C3 alcohol, preferably in an amount sufficient to produce from about a 50 mM to about a 300 mM solution, more preferably from about an 85 mM to about a 150 mM solution. […] Consequently, it may be necessary to heat the mixture in order to fully dissolve it. Preferably, the mixture is refluxed until the mixture becomes a clear solution. The solution is preferably free of solid ondansetron that could potentially seed the mixture causing precipitation of ondansetron in a crystalline form other than Form B or co-crystallization of Form B with another form. Preferably, the Form B obtained by crystallization from the alcohol solution contains less than or equal to about 5% other crystalline forms of ondansetron, more preferably Form B contains less than or equal to about 1% other crystalline forms of ondansetron.

Consider `Cc1nccn1CC1CCc2c(c3ccccc3n2C)C1=O` (racemic) [Ondansetron, (±) 1,2,3,9-Tetrahydro-9-methyl-3-[2-methyl-1H-imidazol-1-yl)methyl]-4H-carbazol-4-one], for which the “solubility in C1-C3 alcohols” value is recorded as “limited solubility”.
